Source: patent US4334067A, “Flavan compounds and acid addition salts thereof” (Maruko Seiyaku Co., Ltd., priority 1979, dated 1982)
Structures can show the parent of a compound that is named as a salt.

Tests used:
Acute toxicity = conditions: mouse, in vivo, 7 days observation
Protocol: […] After observing general conditions of mice for 7 days after administration, 50% lethal dose [LD50 (mg/kg)] was determined.

ddY male mice = assay: Anti-convulsive activity (pulse from corneal electrode); type: in vivo; conditions: 60 mg/kg intraperitoneally, 15 minutes before pulse; compared with Phenytoin 40 mg/kg
Protocol: The test compound was administered intraperitoneally to ddY male mice (weighing 20 to 25 g, 7 mice per group), and, 15 minutes thereafter, pulse (A.C. 100 V, 200 msec.) was applied to the mice from a corneal electrode, and the duration time of tonic flexor, tonic extensor and clonic convulsion were determined.

Wistar male rats [1] = assay: Diuretic activity; type: in vivo; conditions: oral, urine collected 5 hours, control = 1.0
Protocol: Wistar male rats (weighing 200 to 250 g, 9 rats per group) fasted 18 hours before the test but freely received drinking water were used. A 0.9% (by weight) physiological saline solution containing the test compound was orally charged through a stomach tube in an amount of 3 ml/100 g of body weight. Immediately thereafter, the rats were placed in a stainless steel cage and the urine was collected during a period of 5 hours after the administration and the urine volume was measured.

Wistar male rats [2] = assay: Anti-arrhythmic activity (aconitine-induced arrhythmia); type: in vivo; conditions: 10 mg/kg, 10 minutes before aconitine; compared with Ajmaline 5 mg/kg
Protocol: An aqueous solution of aconitine was injected continuously at a rate of 3 μg/kg/minute to Wistar male rats (weighing 220 to 270 g, five rats per group) through a polyethylene cannula inserted into the femoral vein. The test compounds were administered 10 minutes before the administration of aconitine.
The cardiac arrhythmia was determined by electrocardiographic recording of II lead on the limbs and the generation of descending large QRS complex was taken as the ventricular extrasystole and the observation was conducted until ventricular fibrillation was produced.

BALB/C type male mice = assay: Anti-ulcerous activity (restraint water-immersion stress ulcer); type: in vivo; conditions: for Ulcerous Index: control 54.4 mm; for % Inhibition: inhibition of stress ulcer versus control
Protocol: BALB/C type male mice weighing about 20 g which fasted for 17 hours before the test were placed in a poly(vinyl chloride) cyclindrical restraint cage having an inside diameter of 35 mm and the mice were immersed in water at 15° C. to the level of xiphisternum of mice for a period of 5 hours. Immediately thereafter, stomach was extracted and 1 ml of 0.5% (by weight) formalin solution was injected into the stomach. After fixing for about 10 minutes, the stomach was incised along the greater curvature thereof and the ulcer generated was obserbed by a stereoscopic microcope.

Compound | LD50 at 168 h (Acute toxicity; iv) | LD50 at 168 h (Acute toxicity; po) | anti-convulsive activity (ddY male mice) | Volume Ratio of Urine (Wistar male rats [1]; 100 mg/kg) | activity for prolonging the time required for producing the cardiac arrhythmia (Wistar male rats [2]) | Ulcerous Index (BALB/C type male mice; 10 mg/kg) | % Inhibition (BALB/C type male mice; 10 mg/kg) | Volume Ratio of Urine (Wistar male rats [1]; 50 mg/kg) | Ulcerous Index (BALB/C type male mice; 50 mg/kg) | % Inhibition (BALB/C type male mice; 50 mg/kg)
COc1ccc([C@H]2Oc3ccccc3[C@H](NCCCN(C)C)[C@H]2O)cc1 (relative stereo) [Compound D, 2,3-cis-3,4-trans-4-(3-dimethylaminopropylamino)-4'-methoxyflavan-3-ol] | 1000 mg/kg | 1500 mg/kg | – | – | – | – | – | – | – | –
O[C@H]1[C@H](c2ccccc2)Oc2ccccc2[C@@H]1N1CCCCC1 (relative stereo) [Compound E, 2,3-trans-3,4-trans-4-piperidinoflavan-3-ol maleate] | 1000 mg/kg | 1500 mg/kg | comparable to that of Phenytoin | 2.8 | – | – | – | – | – | –
CN(C)CCN[C@H]1c2ccccc2O[C@@H](c2ccccc2)[C@@H]1O (relative stereo) [Compound H, 2,3-trans-3,4-trans-4-(2-dimethylaminoethylamino)-flavan-3-ol dimaleate] | 300 mg/kg | 300 mg/kg | – | – | superior to Ajmaline | – | – | – | – | –
CN1[C@@H]2CC[C@H]1C[C@@H](OC(=O)C(CO)c1ccccc1)C2 (some centres unmarked) [Atropine Sulfate, reference compound] | – | – | – | – | – | 30.7 mm | 43.8% | – | – | –
CC(=O)O[C@H]1[C@H](c2ccccc2)Oc2ccccc2[C@@H]1N1CCN(C)CC1 (relative stereo) [Compound G, 2,3-trans-3,4-trans-3-acetoxy-4-(4-methylpiperazin-1-yl)flavan dimaleate] | 300 mg/kg | 1000 mg/kg | – | – | – | 37.6 mm | 30.8% | 3.0 | 14.3 mm | 73.7%
COc1ccc([C@H]2Oc3ccccc3[C@H](NCCCN3CCOCC3)[C@H]2O)cc1 (relative stereo) [Compound C, 2,3-cis-3,4-trans-4'-methoxy-4-(3-morpholinopropylamino)flavan-3-ol dimaleate] | 500 mg/kg | 1500 mg/kg | comparable to that of Phenytoin | 2.1 | – | – | – | – | – | –
COc1ccc([C@H]2Oc3ccccc3[C@H](N3CCN(C)CC3)[C@H]2O)cc1 (relative stereo) [Compound B, 2,3-cis-3,4-trans-4'-methoxy-4-(4-methylpiperazin-1-yl)flavan-3-ol dimaleate] | 1000 mg/kg | 2000 mg/kg | comparable to that of Phenytoin | – | superior to Ajmaline | – | – | – | – | –
CN1CCN([C@H]2c3ccccc3O[C@@H](c3ccccc3)[C@@H]2O)CC1 (relative stereo) [Compound F, 2,3-trans-3,4-trans-4-(4-methylpiperazin-1-yl)flavan-3-ol dimaleate] | 300 mg/kg | 300 mg/kg | – | 2.2 | – | – | – | – | – | –
CCN(CC)CCN[C@H]1c2ccccc2O[C@H](c2ccc(OC)cc2)[C@@H]1O (relative stereo) [Compound A, 2,3-cis-3,4-trans-4-(2-diethylaminoethylamino)-4'-methoxyflavan-3-ol dimaleate] | 1000 mg/kg | 2000 mg/kg | comparable to that of Phenytoin | – | – | – | – | – | – | –
